Laboratory results taken from patent US11180462B2, “Microbiocidal oxadiazole derivatives” (SYNGENTA PARTICIPATIONS AG, priority 2015, dated 2021).

Experiments:
[1] = tested on: Phakopsora Pachyrhizi; assay: Fungicidal activity against Phakopsora pachyrhizi / soybean / leaf disc preventative (Asian soybean rust); type: in vivo; conditions: foliar, 200 ppm in the applied formulation, soybean leaf disks, compared to untreated control leaf disks, read-out: disease control
Summary of the method: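 Scored 12 to 14 days post-application as percent control relative to untreated check discs, rust spores were sprayed under the disc one day after compound treatment. Incubation: 20°C, 75% rh, first 24–36 h in darkness, then 12 h daily light; discs kept on water agar.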

[2] = tested on: Puccinia recondita f. Sp. Tritici; assay: Fungicidal activity against Puccinia recondita f. sp. tritici / wheat / leaf disc preventative (brown rust); type: in vivo; conditions: foliar, 200 ppm in the applied formulation, wheat leaf segments, preventative, compared to untreated control leaf disks, read-out: disease control
Summary of the method: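 Percent disease control relative to untreated check segments is scored once disease develops, 7 to 9 days after application. Wheat cv. Kanzler segments receive compound spray (200 ppm in formulation) one day before spore inoculation, then sit at 19° C. and 75% rh under 12 h light/12 h dark.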

[3] = tested on: Glomerella lagenarium (Colletotrichum lagenarium); assay: Fungicidal activity against Glomerella lagenarium (Colletotrichum lagenarium) liquid culture / cucumber / preventative (anthracnose); type: cell-based; conditions: Colletotrichum orbiculare; 20 ppm in the applied formulation; liquid culture (PDB), growth inhibition measured photometrically after 3 to 4 days; compared to untreated control; read-out: disease control
Summary of the method: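 Percent activity against the untreated check was derived from photometric growth measurements made 2 to 7 days after conidia in potato dextrose broth were combined with compound at 20 ppm. Cultures were kept dark at 24 °C and 96% humidity.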

[4] = tested on: Puccinia recondita f. Sp. Tritici; assay: Fungicidal activity against Puccinia recondita f. sp. tritici / wheat / leaf disc curative (brown rust); type: in vivo; conditions: foliar, 24 h, 200 ppm in the applied formulation, wheat leaf segments, curative (applied 1 day after inoculation), compared to untreated control leaf disks, read-out: disease control
Summary of the method: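 Scoring is percent disease control relative to untreated segments, made 6 to 8 days after treatment. Wheat (cv. Kanzler) leaf segments received the formulated, water-diluted compound one day post-inoculation with spores, having been kept dark at 19° C and 75% RH, then incubated under 12 h light/12 h dark at the same temperature and humidity.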

| Structure (SMILES) | melting point | pest or weed control at 200 ppm [1] | pest or weed control at 200 ppm [2] | inhibition of growth at 20 ppm [3] | pest or weed control at 200 ppm [4] |
| --- | --- | --- | --- | --- | --- |
| COCC(=O)N(Cc1ccc(-c2noc(C(F)(F)F)n2)cc1)CC(F)(F)F [Compound 1.583, 2-methoxy-N-(2,2,2-trifluoroethyl)-N-[[4-[5-(trifluoromethyl)-1,2,4-oxadiazol-3-yl]phenyl]methyl]-acetamide] | 92.6 to 94.3 °C | ≥ 80% | ≥ 80% | ≥ 80% | ≥ 80% |
| O=C(C1CC1)N(O)Cc1ccc(-c2noc(C(F)(F)F)n2)cc1 [Compound 1.607, N-hydroxy-N-[[4-[5-(trifiuoromethyl)-1,2,4-oxadiazol-3-yl]phenyl]methyl]-cyclopropane-carboxamide] | 141.2 to 143.5 °C | ≥ 80% | ≥ 80% | ≥ 80% | ≥ 80% |
| CON(C)C(=O)N(C)C(C#N)c1ccc(-c2noc(C(F)(F)F)n2)cc1 (stereo not drawn) [Compound 3.31, 1-[cyano-[4-[5-(trifluoromethyl)-1,2,4-oxadiazol-3-yl]phenyl]methyl]-3-methoxy-1,3-dimethyl-urea] | 106 to 107 °C | ≥ 80% | ≥ 80% | ≥ 80% | ≥ 80% |
| CON(Cc1ccc(-c2noc(C(F)(F)F)n2)cc1)C(=O)NC1(C#N)CC1 [Compound 3.47, 3-(1-cyanocyclopropyl)-1-methoxy-1-[[4-[5-(trifluoromethyl)-1,2,4-oxadiazol-3-yl]phenyl]methyl]urea] | 106 to 109 °C | ≥ 80% | ≥ 80% | ≥ 80% | ≥ 80% |
| CON(Cc1ccc(-c2noc(C(F)(F)F)n2)cc1)C(=O)NC(C)C [Compound 3.42, 3-isopropyl-1-methoxy-1-[[4-[5-(trifluoromethyl)-1,2,4-oxadiazol-3-yl]phenyl]methyl]urea] | 106 to 107.3 °C | ≥ 80% | ≥ 80% | ≥ 80% | ≥ 80% |
| CON(Cc1ccc(-c2noc(C(F)(F)F)n2)cc1)C(=O)NC1CC1 [Compound 3.14, 3-cyclopropyl-1-methoxy-1-[[4-[5-(trifluoromethyl)-1,2,4-oxadiazol-3-yl]phenyl]methyl]urea] | 84 to 87 °C | ≥ 80% | ≥ 80% | ≥ 80% | ≥ 80% |
| CN(Cc1ccc(-c2noc(C(F)(F)F)n2)cc1)C(=O)NC1CC1 [Compound 3.56, 3-cyclopropyl-1-methyl-1-[[4-[5-(trifluoromethyl)-1,2,4-oxadiazol-3-yl]phenyl]methyl]urea] | 113 to 121 °C | ≥ 80% | ≥ 80% | ≥ 80% | ≥ 80% |
| CCC(=O)N(O)Cc1ccc(-c2noc(C(F)(F)F)n2)cc1 [Compound 1.603, N-hydroxy-N-[[4-[5-(trifiuoromethyl)-1,2,4-oxadiazol-3-yl]phenyl]methyl]-propanamide] | 141.2 to 143.5 °C | ≥ 80% | ≥ 80% | ≥ 80% | ≥ 80% |
| C#CCNC(=O)N(Cc1ccc(-c2noc(C(F)(F)F)n2)cc1)OC [Compound 3.43, 1-methoxy-3-prop-2-ynyl-1-[[4-[5-(trifluoromethyl)-1,2,4-oxadiazol-3-yl]phenyl]methyl]urea] | 88.9 to 90.6 °C | ≥ 80% | ≥ 80% | ≥ 80% | ≥ 80% |
| CNC(=O)N(C)Cc1ccc(-c2noc(C(F)(F)F)n2)cc1 [Compound 3.37, 1,3-dimethyl-1-[[4-[5-(trifluoromethyl)-1,2,4-oxadiazol-3-yl]phenyl]methyl]urea] | 95 to 98 °C | ≥ 80% | ≥ 80% | ≥ 80% | ≥ 80% |
| COCC(=O)N(O)Cc1ccc(-c2noc(C(F)(F)F)n2)cc1 [Compound 1.606, N-hydroxy-2-methoxy-N-[[4-[5-(trifluoromethyl)-1,2,4-oxadiazol-3-yl]phenyl]methyl]-acetamide] | 144.4 to 147.8 °C | ≥ 80% | ≥ 80% | ≥ 80% | ≥ 80% |
| CCONC(=O)N(Cc1ccc(-c2noc(C(F)(F)F)n2)cc1)OC [Compound 3.18, 3-ethoxy-1-methoxy-1-[[4-[5-(trifluoromethyl)-1,2,4-oxadiazol-3-yl]phenyl]methyl]urea] | 107 to 110 °C | ≥ 80% | ≥ 80% | ≥ 80% | ≥ 80% |
